PMC9086926 (RSC Advances, 2018)

How the values were obtained:
[1] = Absorptive permeability across traditional 21 day Caco-2 cell model; conditions: human
[2] = Absorptive permeability across 7 day fast model; conditions: human, Caco-2
[3] = cited from earlier work

Compound	Papp A→B at 25 μM [1]	Papp A→B at 25 μM [2]	FA (human absorption fraction) [3]
CC(NC(C)(C)C)C(=O)c1cccc(Cl)c1 (stereo not shown) [Bupropion]	16.6 ± 0.99 ×10⁻⁶ cm/s	12.9 ± 0.48 ×10⁻⁶ cm/s	
NC(=O)N1c2ccccc2C=Cc2ccccc21 [Carbamazepine]	20.9 ± 1.93 ×10⁻⁶ cm/s	19.5 ± 0.87 ×10⁻⁶ cm/s	100%
O=C(N[C@H](CO)[C@H](O)c1ccc([N+](=O)[O-])cc1)C(Cl)Cl [Chloramphenicol]	8.17 ± 0.06 ×10⁻⁶ cm/s	7.12 ± 0.04 ×10⁻⁶ cm/s	
CCc1cc(C(N)=S)ccn1 [Ethionamide]	23.8 ± 0.94 ×10⁻⁶ cm/s	20.4 ± 5.5 ×10⁻⁶ cm/s	80%
CCOC(=O)C1=C(C)NC(C)=C(C(=O)OC)C1c1cccc(Cl)c1Cl (stereo not shown) [Felodipine]	4.34 ± 0.63 ×10⁻⁶ cm/s		
CC(=O)N1CCN(c2ccc(OCC3COC(Cn4ccnc4)(c4ccc(Cl)cc4Cl)O3)cc2)CC1 (stereo not shown) [Ketoconazole]	9.61 ± 0.01 ×10⁻⁶ cm/s	8.33 ± 0.93 ×10⁻⁶ cm/s	76%
CC(C(=O)O)c1cccc(C(=O)c2ccccc2)c1 (stereo not shown) [Ketoprofen]	19.2 ± 1.93 ×10⁻⁶ cm/s	15 ± 1.97 ×10⁻⁶ cm/s	
Nc1nnc(-c2cccc(Cl)c2Cl)c(N)n1 [Lamotrigine]			98%
COCCc1ccc(OCC(O)CNC(C)C)cc1 (stereo not shown) [Metoprolol]	12.1 ± 0.39 ×10⁻⁶ cm/s	11.8 ± 0.25 ×10⁻⁶ cm/s	
COc1ccc2[nH]c([S+]([O-])Cc3ncc(C)c(OC)c3C)nc2c1 (stereo not shown) [Omeprazole]	12.6 ± 2.01 ×10⁻⁶ cm/s	11.4 ± 0.47 ×10⁻⁶ cm/s	80%
CC(C)NCC(O)COc1cccc2ccccc12 (stereo not shown) [Propranolol]	10.6 ± 1.66 ×10⁻⁶ cm/s	9.37 ± 0.03 ×10⁻⁶ cm/s	
COC(=O)[C@H]1[C@H]2C[C@@H]3c4[nH]c5cc(OC)ccc5c4CCN3C[C@H]2C[C@@H](OC(=O)c2cc(OC)c(OC)c(OC)c2)[C@@H]1OC [Reserpine]	3.5 ± 0.69 ×10⁻⁶ cm/s	3.6 ± 0.43 ×10⁻⁶ cm/s	50%
Nc1ccc(S(=O)(=O)Nc2ncccn2)cc1 [Sulfadiazine]	9.76 ± 1.05 ×10⁻⁶ cm/s		65%
CC(C)(C)NCC(O)c1cc(O)cc(O)c1 (stereo not shown) [Terbutaline]	15.6 ± 1.28 ×10⁻⁶ cm/s	16.6 ± 0.7 ×10⁻⁶ cm/s	73%
CC(=O)CC(c1ccccc1)c1c(O)c2ccccc2oc1=O (stereo not shown) [Warfarin sodium]	15.31 ± 0.002 ×10⁻⁶ cm/s	14.44 ± 0.11 ×10⁻⁶ cm/s	
